# Reference: patent publication US9051568B2, “Anti-sense microrna expression vectors” (Rutgers, The State University of New Jersey, priority 2008, dated 2015)
# How the values were obtained:
# miR-199a = assay: Northern blotting of miR-199a in myocytes; type: cell-based, rat; conditions: 100 μM, 16 h
# From the text: g. […] Total RNA was then extracted and analyzed by Northern blotting for the miRNA indicated on the left (n=2).
# (§1) Northern blotting—As previously described.
# SPRY2 = SPRY2 protein in cardiocytes (Western blot, immunostaining); type: cell-based, rat; conditions: isoproterenol and β2AR
# From the text: Using Western blot analysis down-regulation of endogenous SPRY2 (52±4%) was confirmed upon over-expression of miR-21 for 48 hr (FIG. 8d). Since sprouty negatively regulates erk1/2, phospho-erk1/2 was used as a marker for monitoring changes in Spry2 function that would be regulated by changes in its levels. […] Thus, SPRY2 is a downstream target of miR-21 (could be a direct or indirect target at this juncture) and has limiting cellular concentrations.
# The physiological relevance of these miR-21-induced outgrowths were assessed. After treatment of the cells with isoproterenol and staining them with an antibody against the sarcomeric protein titin, cellular outgrowth that were connecting or reaching out to adjacent cells was observed (FIG. 9a). The striated pattern of titin staining reflects the presence of sarcomeres even within these branches. This effect was wide spread in all observed fields (4±3 branches/cell). Impressively, these outgrowths were abrogated by the miR-21 eraser or over-expression of SPRY2 (FIG. 9a). […] Similar results were obtained when cells were treated the a virus over-expressing β2AR (supplementary FIG. 9s). While FIG. 7 confirms that isoproterenol and β2AR induce upregulation of miR-21, FIG. 9b confirms that they also induce 70±22% downregulation of SPRY2 protein (FIG. 9b). […]
# miR-21 = assay: Northern blotting of miR-21 in cardiocytes; type: cell-based; conditions: isolated rat cardiocytes
# From the text: as §1
# In order to address the role of miR-21 in cardiocytes a 320 nt sequence that encompasses the miR-21 stem-loop was cloned into a recombinant adenovirus (FIG. 8a). A tandem repeat of the anti-sense sequence of mature miR-21 was also cloned under the control of the U6 promoter (FIG. 8a). […] For that reason this construct was dubbed ‘miR-21 eraser’.
# cardiocytes = assay: Cellular outgrowths/branches of cultured cardiocytes; type: cell-based, rat; conditions: cardiocytes treated with isoproterenol, titin staining
# Experimental: Cell cultures and adenovirus Infection—Neonatal cardiac myocytes were prepared from Sprague Dawley rat hearts as previously described, using both pre-plating and percoll gradients for enriching of myocytes. Adult cardiac myocytes were prepared as previously described.
# But after 48-72 h in culture extensive cellular outgrowths (4±3 branches/cell) were noticed that varied in length (44±28 μm) depending on the distance between neighboring cells (FIG. 8c). Sprouty, a known inhibitor of branching morphogenesis and neurite outgrowth, is predicted to be a miR-21 target by TargetScanS and PicTar miRNA target prediction software, each using a unique set of algorithms. To confirm its potential in mediating miR-21's branching effects, it was independently knocked down using adenoviral delivered short-hairpin RNA (see FIG. 8e).
# The physiological relevance of these miR-21-induced outgrowths were assessed. After treatment of the cells with isoproterenol and staining them with an antibody against the sarcomeric protein titin, cellular outgrowth that were connecting or reaching out to adjacent cells was observed (FIG. 9a). The striated pattern of titin staining reflects the presence of sarcomeres even within these branches. This effect was wide spread in all observed fields (4±3 branches/cell). Impressively, these outgrowths were abrogated by the miR-21 eraser or over-expression of SPRY2 (FIG. 9a). […]
# [1] = system: prolyl hydroxylase 2 (PHD2); assay: PHD2 protein in myocytes by Western blotting; type: cell-based, rat; conditions: myocytes overexpressing Sirt1, 20 mM
# Experimental: b. Myocytes were treated as described in (a.) and as indicated in the grid by + signs. Protein was extracted and analyzed by Western blotting (n=3).
# d. Myocytes were subjected to 24 h anoxia or HPC, before or after treatment with a control or miR-199a-expressing virus for 24 h where indicated by + signs. Protein was extracted and analyzed by Western blotting for the molecules indicated on the left.
# e. Myocytes were treated with a control or Sirt1-overexpressing virus in the absence or presence or 20 mM nicotinamide (NAM). Protein was extracted and analyzed by Western blotting (n=3).
# (§2) Cellular fractionation and Western blotting—Mitochondria was isolated using ProteoExtract Cytosol/Mitochondria Fractionation Kit (Calbiochem, NJ), according to the manufacturer's protocol. Fifteen μg of protein was separated on a 4% to 20% gradient SDS-PAGE (Criterion gels, Bio-Rad, CA) and transferred onto TransBlot Transfer membrane (Bio-Rad, CA).
# Sirt1 = Sirt1 protein in myocytes by Western blotting; type: cell-based, rat; conditions: 40 μM, 24 h
# Experimental: c. […] Protein was then extracted and analyzed by Western blotting.
# b. Cultured adult rat cardiac myocytes were treated with miR-199a eraser for 24 h or HPC. Protein was extracted and analyzed by Western blotting for the molecules indicated on the left of each panel (n=3).
# as §2
smiles,measurement,setting,value
Nc1ncnc2c1ncn2[C@@H]1O[C@H](CO)[C@@H](O)[C@H]1O [adenosine],miR-199a level,miR-199a,downregulation
CC(C)NCC(O)c1ccc(O)c(O)c1 (stereo not drawn) [isoproterenol],downregulation of SPRY2 protein,SPRY2,70±22%
same,miR-21 level,miR-21,upregulation
same,cellular outgrowths,cardiocytes,4±3 branches/cell
NC(=O)c1cccnc1 [nicotinamide],Sirt1-induced knockdown of PHD2,[1],reversed
Oc1ccc(C=Cc2cc(O)cc(O)c2)cc1 [resveratrol],Sirt1 expression,Sirt1,increase
